Data set [1] relates to A549 cells. Nature of the data set: Effect on A549 cell activity by CCK-8 method. Type of data set: cell-based. Conditions: 0 to 10^5 nM, 12 hours. On the procedure: (§1) (1) A549 cells in the logarithmic phase were collected, the concentration of the cell suspension was adjusted, and 100 uL was added per well. The cells to be tested were plated to a density of 10^3-10^4 cells/well and incubated at 37° C. under 5% CO2 until the bottom of the wells was covered by a single layer of cells.
(2) Different concentrations of the compound of Formula (I) were added: 0, 10, 10^2, 10^3, 10^4, and 10^5 nM/well, with 3 replicate wells set, and incubated at 37° C. under 5% CO2 for 12 hours.
• (1) 10 μL CCK8 reagent was added to the above cells in each well and reacted for 2 h. • (2) The incubation was terminated, and the culture medium in the wells was carefully aspirated. • (3) The absorbance of each well was measured using a microplate reader with a wavelength of 450 nm. • (4) The absorbance ratio between the experimental group and the control group was calculated as follows: Cell viability=(Absorbance of the experimental group−Blank control)÷(Absorbance of the control group−Blank control)×100%.

Data set [2] concerns the target T1, CypA (Homo sapiens, UniProt P62937).
T1 construct: A549 cells in the logarithmic phase were collected; endogenous in cells; host or cells: A549
Nature of the data set: CypA degradation in A549 cells by Western Blot. The format is cell-based. The conditions noted are these: A549 cell line, 12 hours. On the procedure:
as §1
(2) Different concentrations of the compound of Formula I were added: 0, 10, 10^2, 10^3, 10^4, and 10^5 nM/well, with 3 replicate wells set, and incubated at 37° C. under 5% CO2 for 12 hours.
(1) The treated cells were scraped off from the culture medium, suspended thoroughly, and then collected by centrifugation at 300 g for 5 minutes. After washing with PBS once, the PBS was discarded. […]
(3) The specific steps for Western Blot (WB) detection were as follows: • 1) An appropriate concentration of SDS-PAGE gel was prepared: the concentration of a separating gel of 10% and the concentration of a stacking gel of 5%. • 2) Sample preparation: protein samples were prepared according to experimental requirements, centrifuged, mixed well, and loaded into the loading wells of SDS-PAGE gel. The loading volume was adjusted appropriately according to the protein quantification results. • 3) Electrophoresis: the power was turned on, and the protein samples were run at 80 volts in the stacking gel. […]
For orientation: A western blot detects proteins with antibodies after separation by electrophoresis.

The target in data set [3] is CypA (Mus musculus, UniProt P17742). The format is in vivo, C57BL/6 mice. The conditions noted are these: 10 mg/kg of body weight/day from 24 h after IBV infection, 7 days after infection.
The subject of data set [4] is IBV-/Guangxi-Jiangzhou/1352/2018. Briefly: IBV-induced pneumonia mouse model: lung index, lung pathology and pathological scores. Conditions: in vivo. The arrangement: species or system C57BL/6 mice.
Data set [5] concerns IL-1β, IL-6, TNF-α, and IFN-γ. Also noted: species or system C57BL/6 mice. Conditions: mouse, in vivo, 10 mg/kg/day.
In a further data set the test system is rheumatoid arthritis. Briefly: Rat rheumatoid arthritis model (Freund complete adjuvant). The format is in vivo, Lewise rats. The conditions noted are these: 10 mg/kg tail vein three times/week. The protocol:
The BCG vaccine was inactivated in a water bath at 80° C. for 1 h, ground thoroughly with incomplete Freund adjuvant, and mixed well to prepare 15 mg/mL Freund complete adjuvant (FCA). Lewise rats were divided into 4 groups: blank group (PBS), untreated group (UT), treatment group 1 (compound), and treatment group 2 (MTX (methotrexate)), with 5 rats in each group and a body weight of […]. Except for the PBS group, rats were intradermally injected with 0.1 mL of FCA in the right hind paw. On day 14 after injection, rats in treatment group 1 (compound) were injected with the compound (10 mg/kg of body weight, dissolved in 100 μL of PBS) through the tail vein three times/week: rats in treatment group 2 (MTX (methotrexate)) were intraperitoneally injected with methotrexate (1.2 mg/kg of body weight) three times/week.
The circumference of the metatarsophalangeal joint was measured. The circumference of the ankle joint of the left hind paw (on the secondary lesion side) of all rats was measured once before modeling, before administration, and 3 weeks after administration, respectively, and the percentage of joint swelling was calculated.
The joint index was determined by joint swelling score before administration (Day 0) and 3 weeks after administration. Scoring was carried out based on the redness and swelling degree of the ankle and toe joints of the front and rear limbs of rats and the affected joint index, as follows: 0 for normal; 1 for the redness and swelling of one joint; 2 for the redness and swelling of two or more joints; 3 for severe redness and swelling of the paw below the ankle joint; 4 for the redness and swelling of the entire paw including the ankle joint and inability to bear weight. The limbs were scored separately; and the cumulative sum of the scores was the joint index.
(1) On the day 21 of administration, rats were euthanized after blood collection. […]
(2) Joint synovial proliferation and the degree of sub-synovial inflammation were observed under a light microscope, and synovial cell proliferation was scored.

The test system of data set [6] is A549 cells. Briefly: Migration and infiltration of lung cancer cells, Transwell chambers. Type of data set: cell-based. The protocol: (1) A549 cells in the logarithmic phase were collected, the concentration of the cell suspension was adjusted, and 100 uL was added per well. The cells to be tested were plated to a density of 10^3 to 10^4 cells/well and incubated at 37° C. under 5% CO2 until the bottom of the wells was covered by a single layer of cells.
(2) Different concentrations of the compound represented by Formula I were added: 0, 10, 10^2, 10^3, 10^4, and 10^5 nM/well, with 3 replicate wells set, and incubated at 37° C. under 5% CO2 for 12 hours.
The upper chamber of a 24-well cell culture insert ([…] pore size) was coated (no migration) or (invasive) with a matrix (1 mg/mL) and dried at 37° C. for 30 min.
(3) A549/WT and A549/CypA-cells were trypsinized, washed, and suspended in serum-free DMEM after treatment with 20 ng/ml TGF-β for 48 h.
(1) DMEM containing 10% fetal bovine serum was added to the lower chamber per approximately 5×10^4 cells inserted in the upper chamber.
(2) After incubation for 6 h (migration) or 24 h (invasion), non-migrating or […] cells residing on the upper part of the insert membrane were removed with a cotton swab.
(3) The cells that migrated to the underside of the membrane were fixed and stained with 2% crystal violet in ethanol.
(4) The stained cells were observed and counted under a Japan Olympus CKX41 microscope.

Where only a bound is given, the exact number is not on record here.

T1 sequence (P62937 whole entry): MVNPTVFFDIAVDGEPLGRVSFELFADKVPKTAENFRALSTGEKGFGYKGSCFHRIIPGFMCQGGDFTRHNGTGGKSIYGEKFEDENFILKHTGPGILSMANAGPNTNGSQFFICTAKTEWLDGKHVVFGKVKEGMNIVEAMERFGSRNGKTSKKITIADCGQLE
CypA (Mus musculus, UniProt P17742), sequence (P17742 whole entry): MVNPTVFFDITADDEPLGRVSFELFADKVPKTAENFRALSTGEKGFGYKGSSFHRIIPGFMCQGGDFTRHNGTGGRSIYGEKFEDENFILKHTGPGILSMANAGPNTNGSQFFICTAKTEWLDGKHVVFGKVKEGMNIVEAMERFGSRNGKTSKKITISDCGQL

Take `Cc1ncsc1-c1ccc(CNC(=O)[C@@H]2C[C@@H](O[Si](C)(C)C(C)(C)C)CN2C(=O)[C@@H](NC(=O)COCCCCOCCCCOc2cccc(O)c2C(=O)NC(=O)NC2CCCCC2)C(C)(C)C)cc1` [Formula I]: the cell viability entry in the data set on A549 cells [1] is recorded as “above 80%”. Further, on CypA [2] (WB grayscale analysis, read-out: half-degradation concentration on CypA), the DC50 was less than 100 nM. The “degradation effect on CypA protein” value at CypA [2] (WB, 0 to 10^5 nM) is listed as “could be clearly observed”. Also, on CypA [3], the “expression of CypA in mouse lung tissue” value is recorded as “significantly reduce”. Also, the “lung injury (lung index, pathology, pathological scores)” value in data set [4] is listed as “significantly alleviate lung injury”. In data set [5], the “expression of IFN-γ in the lung tissue” value was “significantly reduce”, the “expression of IL-1β in the lung tissue” value is “significantly reduce”, the “expression of IL-6 in the lung tissue” value is recorded as “significantly reduce” and the “expression of TNF-α in the lung tissue” value was “significantly reduce”. In the data set on rheumatoid arthritis (3 weeks after administration), the “joint index of the ankle joint” value is “reduce the joint index” and the joint swelling result is given as “significantly relieve joint swelling”. Moreover, in the data set with rheumatoid arthritis (day 21 of administration), the “inflammation of the ankle joint (ankle pathological scores, HE)” value is reported as “alleviate the inflammation”. Besides, the “infiltration of lung cancer cells” value in the data set on A549 cells [6] (A549, Transwell with matrix, 24 h) was “significantly reduce”. Moreover, the “migration of lung cancer cells” value with A549 cells [6] (A549, Transwell, 6 h) is “significantly reduce”.

Source of the values: patent publication US20250361248A1, “PROTAC COMPOUND WITH CYCLOPHILIN A DEGRADATION ACTIVITY, PREPARATION METHOD THEREFOR, AND USE THEREOF” (priority 2022, published 2025).
